Values quoted from earlier work, collected in patent US20090203685A1, “ANTI-PROLIFERATIVE COMPOUNDS FROM A 3-ARYL-COUMARINE OR 3-ARYL-QUINOLIN-2-ONE AND USES THEREOF” (EOS (ETHICAL ONCOLOGY SCIENCE) S.P.A., priority 2006, published 2009).

Tests used:
SCLC tumor = details: in vivo; cited from earlier work
[1] = test system: small cell lung carcinoma (SCLC) and lymphoid cells; details: cited from earlier work

SMILES: CN(C)CC[C@H](CSc1ccccc1)Nc1ccc(S(=O)(=O)NC(=O)c2ccc(N3CCN(Cc4ccccc4-c4ccc(Cl)cc4)CC3)cc2)cc1[N+](=O)[O-] [ABT-737]
- SCLC tumor regression in mouse models (SCLC tumor): induces SCLC tumor regression
- Apoptosis of SCLC and lymphoid cells [1]: induces apoptosis
